Here are results for 28 compounds from US4952589A, “Pyridine compounds” (priority 1984, dated 1990).

SMILES strings stand for the structures. Where two headings read alike, the source gives them in different places.

One series has as its target T1, histamine H2 -receptor (Cavia porcellus, UniProt P47747).
T1 construct: a spontaneously beating isolated portion of the guinea pig right atrium; from tissue; host or cells: guinea pig right atrium
Description: Inhibition of histamine-induced tachycardia in the isolated guinea-pig right atrium. Type of series: cell-based. How it is done: In the guinea pig atrium test a spontaneously beating isolated portion of the guinea pig right atrium is secured under tension (300 mg) between an anchorage and a transducer in a 15 ml tissue bath and immersed in McEwens solution with constant aeration at a temperature of 37° C. The output from the transducer is amplified. Output is in turn fed to a flat bed recorder. Measured amounts of histamine are added to the tissue bath so that the histamine concentration increases step-wise until the rate of beating reaches a maximum. The tissue bath is washed out and filled with fresh McEwens solution containing compound under test. The solution is left in contact with the tissue for 60 min. and measured amounts of histamine are added again until a maximum rate is recorded. The assay is repeated with increasing concentrations of test compound and the dose of histamine giving 50% of maximum rate is noted. A dose ratio (DR) was calculated by comparing the concentrations of histamine required to produce 50% maximum response in the absence and in the presence of the antagonist. A plot of Log DR-1 against LOG D (the concentration of compound under test) is made and the point of intersection with the Log (DR-1) ordinate is taken as the measure of the activity (pA2 value).

The target of series [1] is T2, brain histamine H2 -receptor (Cavia porcellus, UniProt P47747).
T2 construct: from tissue; host or cells: guinea pig cerebral cortex membranes
Description: Inhibition of dimaprit stimulated cyclic AMP accumulation in guinea pig hippocampal slices. The format is cell-based.

The target of series [2] is T2, brain histamine H2 -receptor. Put plainly: Inhibition of 3H-tiotidine binding to guinea pig cerebral cortex membranes.
For series [3], the system named is maximal electroshock seizures. Description: Anticonvulsant activity: maximal electroshock seizures in mice. The format is in vivo. To be noted: subcutaneously.
Series [4] relates to leptazol-induced tonic extensor spasm. Description: Anticonvulsant activity: leptazol (pentylenetetrazol)-induced convulsions in mice. Type of series: in vivo. To be noted: subcutaneously, dose-dependent (stated for Examples 5 and 6).
Series [5] is described as follows: Δ log P (log P octanol/water minus log P cyclohexane/water).
Series [6] has as its system pial artery dilatation induced by histamine. Description: Cat pial artery in situ: antagonism of dilatation induced by perivascularly applied histamine. Type of series: in vivo.
A short description of the next series: physchem. Conditions: octanol/water.
Series [7] in a line: Blood-brain barrier penetration in urethane-anaesthetised rats (radiolabelled compound, infusion). Conditions: rat, intravenous bolus then infusion, approximately 2 μM blood concentrations, at least 2 hours; separate determinations.
Description: The levels of compound and inulin in the blood are monitored and the infusion maintained for at least 2 hours until equilibria (or at least approximate blood plateaux) are achieved. The rat is exsanguinated to minimise blood contamination of the brain. […] The tissues are weighed and then dissolved in a tissue solubiliser, e.g. Soluene-100 overnight at 37° C. in glass vials. […] Glacial acetic acid is added to each vial in order to neutralise the soluene and reduce chemiluminescence. Dimilume-30 (15 ml) is added as the scintillant and the vials left for 12 hours in the scintillation counter in order to further reduce chemiluminescence prior to counting for activity.
The subject of series [8] is pial artery dilatation induced by histamine. To be noted: cat, locally applied; Wahl & Kuschinsky; cited from earlier work.
Series [9] concerns bicuculline injection induced convulsions. To be noted: mice; cited from earlier work.
For series [10], the system named is leptazol-induced tonic extensor spasm. Conditions: mice; cited from earlier work.
The subject of series [11] is maximal electroshock seizures. To be noted: mice; cited from earlier work.
[12] abbreviates: isolated guinea pig right atrium, 37° C., 60 min contact, histamine agonist, read-out: pA2 (converted).
Where [13] appears, read: dimaprit stimulated cyclic AMP accumulation, guinea pig hippocampal slices, read-out: pKi (converted).
Setting [14] is: 3H-tiotidine, guinea pig cerebral cortex membranes, read-out: pKi cortex (converted).

T2 sequence (P47747 whole entry): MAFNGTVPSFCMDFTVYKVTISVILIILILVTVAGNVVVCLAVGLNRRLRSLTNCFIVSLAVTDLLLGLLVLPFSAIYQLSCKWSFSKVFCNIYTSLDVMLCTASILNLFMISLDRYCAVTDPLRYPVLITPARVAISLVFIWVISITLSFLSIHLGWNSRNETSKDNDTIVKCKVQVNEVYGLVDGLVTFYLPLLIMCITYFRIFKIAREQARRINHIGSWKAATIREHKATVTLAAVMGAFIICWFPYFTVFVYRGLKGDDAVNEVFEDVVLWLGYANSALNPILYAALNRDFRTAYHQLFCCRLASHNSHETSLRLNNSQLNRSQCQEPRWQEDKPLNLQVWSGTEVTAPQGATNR
T1 sequence (P47747 whole entry): as above

Regarding `c1cc(CN2CCCCC2)cc(OCCCNc2nc3ccccc3[nH]2)c1` [Description 1, 2-[3-[3-(Piperidinomethyl)phenoxy]propylamino]benzimidazole], the Kb on histamine H2 -receptor (setting [12]) is 63.1 nM. In addition, the Ki in series [1] (setting [13]) is 37.2 nM; in series [2] (setting [14]), 25.1 nM.

For the compound `c1cc(CN2CCCCC2)cc(OCCCNc2nc3ccccc3o2)c1` [Example 1, 2-[3-[3-(Piperidinomethyl)phenoxy]propylamino]benzoxazole], the Kb at histamine H2 -receptor (setting [12]) was 63.1 nM. In addition, the Ki in series [1] (setting [13]) was 21.9 nM; in series [2] (setting [14]) it was 79.4 nM. In series [3], the “doses protecting against maximal electroshock seizures” value was in the range of 30 to 100 mg/kg. The “doses protecting against leptazol-induced tonic extensor spasm” value in series [4] lay within 10 to 100 mg/kg.

With `c1cc(CN2CCCCC2)cc(OCCCNc2ccc3ccccc3n2)c1` [Example 3, 2-[3-[3-(Piperidinomethyl)phenoxy]propylamino]quinoline], the Kb on histamine H2 -receptor (setting [12]) was 631 nM. The figures for the Ki in [1] (setting [13]) and in [2] (setting [14]) were 10.7 nM and 12.6 nM, respectively.

With `c1cnc(NCCCOc2cccc(CN3CCCCC3)c2)nc1` [Example 4, 2-[3-[3-(Piperidinomethyl)phenoxy]propylamino]pyrimidine], the Kb at histamine H2 -receptor (setting [12]) is 2000 nM. Moreover, the Ki in series [1] (setting [13]) was 22900 nM; in [2] (setting [14]) it was 3160 nM.

On histamine H2 -receptor, `c1cc(CN2CCCCC2)cc(OCCCNc2nc3ccccc3s2)c1` [Example 5, 2-[3-[3-(Piperidinomethyl)phenoxy]propylamino]benzthiazole] had a Kb of 25.1 nM. For the same compound, the “Δ log P” value in series [5] worked out at 1.74. In addition, the Ki is 15.8 nM in series [1] and 79.4 nM in series [2]. Moreover, the “antagonism of pial artery dilatation induced by histamine” value in series [6] (intravenous) and in series [6] (locally applied) was “antagonised the pial artery dilatation” throughout. Moreover, in [3], the “doses protecting against maximal electroshock seizures” value fell in the range of 30 to 100 mg/kg. In addition, the logP in the series “physchem” stood at 1.46. Also, the “doses protecting against leptazol-induced tonic extensor spasm” value in [4] lay in the range of 10 to 30 mg/kg.

In the case of `c1ccc(NCCCOc2cccc(CN3CCCCC3)c2)nc1` [Example 6, 2-[3-[3-(Piperidinomethyl)phenoxy]propylamino]pyridine], the Kb at histamine H2 -receptor (setting [12]) was 794 nM. Besides, the Ki in series [1] (setting [13]) is 56.2 nM; in series [2] (setting [14]), 100 nM. Besides, the “doses protecting against maximal electroshock seizures” value in series [3] fell in the range of 30 to 100 mg/kg. Further, the logP in “physchem” came to 2.88. In addition, the “doses protecting against leptazol-induced tonic extensor spasm” value in series [4] fell in the range of 30 to 100 mg/kg.

Take `COc1cccc(NCCCOc2cccc(CN3CCCCC3)c2)n1` [Example 7, 2-[3-[3-(Piperidinomethyl)phenoxy]propylamino]-6-methoxypyridine]: at histamine H2 -receptor (setting [12]), the Kb is 794 nM. Moreover, the Ki in [2] (setting [14]) was 501 nM.

As to `CCOc1cc(NCCCOc2cccc(CN3CCCCC3)c2)nc2ccccc12` [Example 8, 2-[3-[3-(Piperidinomethyl)phenoxy]propylamino]-4-ethoxyquinoline], the Kb on histamine H2 -receptor (setting [12]) is 2000 nM. Further, in series [2] (setting [14]), the Ki is 200 nM.

As to `c1cc(CN2CCCCC2)cc(OCCCNc2nccs2)c1` [Example 9, 2-[3-[3-(Piperidinomethyl)phenoxy]propylamino]thiazole], the Kb on histamine H2 -receptor (setting [12]) is 39.8 nM. Further, the Ki in series [1] (setting [13]) and in series [2] (setting [14]) was 63.1 nM in each case.

With `Cn1c(NCCCOc2cccc(CN3CCCCC3)c2)nc2ccccc21` [Example 10, 2-[3-[3-(Piperidinomethyl)phenoxy]propylamino]-1-methylbenzimidazole], the Kb at histamine H2 -receptor (setting [12]) was 7940 nM. The Ki in [1] (setting [13]) was 2 nM; in series [2] (setting [14]), 31.6 nM.

On to `c1cncc(NCCCOc2cccc(CN3CCCCC3)c2)c1` [Example 11, 3-[3-[3-(Piperidinomethyl)phenoxy]propylamino]pyridine], for which the Ki in series [2] (setting [14]) is 794 nM.

For `c1cc(CN2CCCCC2)cc(OCCCNc2nccc3ccccc23)c1` [Example 12, 1-[3-[3-(Piperidinomethyl)phenoxy]propylamino]isoquinoline], the Kb on histamine H2 -receptor (setting [12]) was 398 nM. Also, the Ki in [2] (setting [14]) is 39.8 nM.

Turning to `Cc1nc(NCCCOc2cccc(CN3CCCCC3)c2)sc1C` [Example 14, 2-[3-[3-(Piperidinomethyl)phenoxy]propylamino]-4,5-dimethylthiazole], the Kb at histamine H2 -receptor (setting [12]) was 2510 nM. In addition, in series [2] (setting [14]), the Ki was 126 nM.

`c1cc(CN2CCCCC2)cc(OCCNc2nc3ccccc3s2)c1` [Example 16, 2-[2-[3-(Piperidinomethyl)phenoxy]ethylamino]benzthiazole]: on histamine H2 -receptor (setting [12]), the Kb is 6310 nM. In series [2] (setting [14]), the Ki was 794 nM.

`c1cc(CN2CCCCC2)cc(OCCCCNc2nc3ccccc3s2)c1` [Example 17, 2-[4-[3-(Piperidinomethyl)phenoxy]butylamino]benzthiazole]: the Kb on histamine H2 -receptor (setting [12]) was 126 nM. Moreover, the Ki in series [2] (setting [14]) was 158 nM.

As for `COc1cccnc1NCCCOc1cccc(CN2CCCCC2)c1` [Example 18, 2-[3-[3-(Piperidinomethyl)phenoxy]propylamino]-3-methoxypyridine], the Kb at histamine H2 -receptor (setting [12]) was 631 nM. The Ki in series [2] (setting [14]) was 39.8 nM.

Turning to `c1cc(CN2CCCCC2)cc(OCCCNc2ncnc3ccccc23)c1` [Example 19, 4-[3-[3-(Piperidinomethyl)phenoxy]propylamino]quinazoline], on histamine H2 -receptor (setting [12]), the Kb was 20 nM. For the same compound, in series [2] (setting [14]), the Ki was 25.1 nM.

Consider `CN(C)Cc1cccc(OCCCNc2nc3ccccc3s2)c1` [Example 21, 2-[3-[3-(Dimethylaminomethyl)phenoxy]propylamino]benzthiazole], for which the Kb at histamine H2 -receptor (setting [12]) was 1260 nM. Also, in series [2] (setting [14]), the Ki was 631 nM.

As for `c1cc(CN2CCCC2)cc(OCCCNc2nc3ccccc3s2)c1` [Example 22, 2-[3-[3-(Pyrrolidinomethyl)phenoxy]propylamino]benzthiazole], the Kb at histamine H2 -receptor (setting [12]) was 100 nM. In series [2] (setting [14]), the Ki was 316 nM.

Regarding `c1cc(CN2CCCCCC2)cc(OCCCNc2nc3ccccc3s2)c1` [Example 23, 2-[3-[3-(Hexahydroazepinomethyl)phenoxy]propylamino]benzthiazole], the Kb on histamine H2 -receptor (setting [12]) was 316 nM. In addition, the Ki in series [2] (setting [14]) is 1260 nM.

With `Cc1cc2nc(NCCCOc3cccc(CN4CCCCC4)c3)sc2cc1C` [Example 24, 2-[3-[3-(Piperidinomethyl)phenoxy]propylamino]-5,6-dimethylbenzthiazole], the Kb on histamine H2 -receptor (setting [12]) was 25100 nM. Moreover, in series [2] (setting [14]), the Ki was 398 nM.

Regarding `c1cc(CN2CCCCC2)cc(OCCc2c[nH]cn2)c1` [Example 25, 4(5)-[2-[3-(Piperidinomethyl)phenoxy]ethyl]imidazole], the Kb at histamine H2 -receptor (setting [12]) was 25100 nM. The Ki in [2] (setting [14]) is 794 nM.

Consider `c1cc(CN2CCCCC2)cc(OCCc2nc3ccccc3[nH]2)c1` [Example 26, 2-[2-[3-(Piperidinomethyl)phenoxy]ethyl]-1H-benzimidazole], for which, on histamine H2 -receptor (setting [12]), the Kb is 20000 nM. Also, the Ki in [2] (setting [14]) was 3980 nM.

In the case of `c1cc(CN2CCCCC2)cc(OCCCc2nc3ccccc3[nH]2)c1` [Example 27, 2-[3-[3-(Piperidinomethyl)phenoxy]propyl]-1H-benzimidazole], the Kb on histamine H2 -receptor (setting [12]) was 316 nM. Further, the Ki in [2] (setting [14]) is 100 nM.

Consider `c1cc(CN2CCCCC2)cc(OCCCCc2nc3ccccc3[nH]2)c1` [Example 28, 2-[4-[3-(Piperidinomethyl)phenoxy]butyl]-1H-benzimidazole], for which the Kb at histamine H2 -receptor (setting [12]) is 126 nM. For the same compound, the Ki in [2] (setting [14]) was 39.8 nM.

Consider `CN(C)CCCN1c2ccccc2CCc2ccccc21` [Imipramine], for which the “molar ratio of compound in the brain to compound in the blood” value in series [7] is 3.5.

Turning to `CN/C(=N/CCSCc1nc[nH]c1C)NC#N` [cimetidine, reference compound], the “antagonism of pial artery dilatation induced by histamine” value in series [6] (intravenous) was “failed to antagonise”; in series [8], “antagonises the pial artery dilatation”.

For `O=C1NC(=O)C(c2ccccc2)(c2ccccc2)N1` [phenytoin sodium], the “antagonism of bicuculline convulsions, known drug” value in series [9] is on record as “antagonise”. Also, the “antagonism of leptazol (pentylenetetrazol) convulsions, known drug” value in series [10] is “antagonise”. For the same compound, the “antagonism of maximal electroshock (MES) convulsions, known drug” value in [11] is on record as “antagonise”.
